Patent publication US7638036B2, “Redox potential mediated carbon nanotubes biosensing in homogeneous format” (E. I. du Pont de Nemours and Company, priority 2004, dated 2009)
Counter-ions that a name gives are not always drawn. Like-named read-outs stand apart in the source and are kept apart here.

How the values were obtained:
[1] = test system: Trametes versicolor laccase; assay: Laccase inhibitor evaluation: rate of ABTS^−2 oxidation at varied inhibitor and substrate concentrations (1/V versus [I] plots); assay type: biochemical
Method: High potential quinones/quinols were screened to identify those with characteristics that would be suitable for use as an inhibitor of laccase, to be used in an activity switch.
Compounds were evaluated by varying the concentrations of inhibitor and substrate (ABTS^−2) and measuring under each condition the rate of ABTS^−2 oxidation. […] Tetrachloro-o-quinol and tetrafluoro-o-quinol, shown in Diagram I, had Kds, of 7-9 μM and 2.5 μM, respectively, as determined from the data in FIG. 12.
After the addition of sodium cyanoborohydride (6 mg, 100 nmol), the reaction mixture was stirred for an additional 2 hours, washed with water (2×0.5 mL) and dried on a rotavap.

[2] = test system: laccase Type I copper center; assay: Laccase 600 nm absorbance peak on inhibitor binding; design: species or system Trametes versicolor; conditions: charge-transfer band of Type I copper center
Text: This conclusion was strengthened by the observation that the binding of tetrachloro-o-quinol to laccase caused a decrease in the amplitude of the laccase 600 nm absorbance peak, dominated by a charge-transfer band involving the Type I copper center and its cysteinyl ligand.

[3] = test system: Trametes versicolor laccase; assay: Laccase assay: ABTS^−2 oxidation followed by absorbance change at 436 nm, with and without NaF; assay type: biochemical; conditions: 1 mM NaF; 5 mM ABTS^−2 in 50 mM Glycine pH 3.0
[4] = inhibitor of laccase, substrate ABTS^−2, read-out: Kd (dissociation constant of the inhibitor, −Ki at intersection point)

Row | Compound | Kd [1, 4] [µM] | activity as laccase inhibitor ([1]; substrate ABTS^−2) | other results
1 | CCn1c(=NN=c2sc3cc(S(=O)(=O)O)ccc3n2CC)sc2cc(S(=O)(=O)O)ccc21 [ABTS^−2, 2,2′-azino-bis(3-ethylbenz-thiazoline-6-sulfonate) diammonium salt, reference compound] |  |  | Kd ([1]; substrate binding to laccase, read-out: dissociation constant, Kd of the laccase substrate): 120 to 240 µM
2 | Oc1c(O)c(Cl)c(Cl)c(Cl)c1Cl [Tetrachloro-o-quinol] | 7 to 9 | effective inhibitor | amplitude of the laccase 600 nm absorbance peak on binding [2]: decrease
3 | [F-].[Na+] [NaF] |  |  | inhibition of laccase activity [3]: 95%
4 | Oc1c(Cl)c(Cl)c(O)c(Cl)c1Cl [tetrachloro-p-quinol, reference compound] |  | inactive as an inhibitor | 
5 | Oc1c(O)c(F)c(F)c(F)c1F [tetrafluoro-o-quinol] | 2.5 |  | 
